Data taken from US20240368096A1 (Enanta Pharmaceuticals, Inc., priority 2022, published 2024).

Tested on: HBV
Assay: HBV infection in HepG2-NTCP cells (HBeAg AlphaLISA in supernatants)
Format: cell-based
Conditions: Hepatitis B virus, 192 h; HBV infection of HepG2-NTCP cells; HBeAg in supernatants at day 8 post infection; read-out: Cellular EC50
Protocol: HepG2-NTCP A3 cells were maintained in DMEM media supplemented with GlutaMAX™ 10% fetal bovine serum, 1% penicillin/streptomycin, and 5 μg/mL puromycin at 37° C. in a humidified atmosphere with 5% CO2 in a collagen-coated tissue culture flask.
HepG2-NTCP cells were seeded in 384 well plate containing 16,000 cells/well two days prior to the infection. On the day of infection, compounds were 3-fold serially diluted in DMSO and pre-incubated with HepG2-NTCP cells for two hours before purified HBV addition. HBV infection was carried out at 2000 GE/cell with 4% PEG, and the final concentration of DMSO is 0.5%. On day one post infection, HBV-containing media was aspirated, cells were washed once with PBS and then maintained in 2.5% DMSO containing media for the remainder of the assay.
Supernatants from infected HepG2-NTCP cells were collected at day 8 post infection, and the amount of viral antigen HBeAg was measured by HBeAg AlphaLISA detection kit (PerkinElmer) following the manufacturer's recommended protocol. Irrespective of readout, compound concentrations that reduce viral product accumulation in supernatants by […] relative to DMSO controls (EC50) are reported. EC50 ranges are as follows: A<0.1 μM; B 0.1-1 μM; C>1 μM.

Row | Compound | EC50
1 | CN1[C@H](CN2CCC(F)(F)C2)CN(c2ccccc2)c2cc(Cl)c(-c3ccc(F)c(C(=O)O)c3)cc2S1(=O)=O [Example 111] | > 1000 nM
2 | CN1[C@H](C2CCCCC2)CN(c2ccccc2)c2cc(Oc3ccncc3)c(-c3ccc(F)c(C(=O)O)c3)cc2S1(=O)=O [Example 416] | > 1000 nM
3 | CN1[C@H](C2COC2)CN(c2ccccc2)c2cc(Cl)c(-c3ccc(F)c(C(=O)O)c3)cc2S1(=O)=O [Example 106] | > 1000 nM
4 | COc1cc2c(cc1-c1cccc(C(=O)O)c1)S(=O)(=O)N(C)[C@@H](Cc1ccc(Cl)cc1)CN2c1ccccc1 [Example 17] | > 1000 nM
5 | CN1[C@H](CN2CCOCC2)CN(c2ccccc2)c2cc(Cl)c(-c3ccc(F)c(C(=O)O)c3)cc2S1(=O)=O [Example 109] | > 1000 nM
6 | CN1[C@H](Cc2ccc(Cl)cc2)CN(c2ccccc2)c2cc(Cl)c(-c3ccc(F)c(C(=O)O)c3)cc2S1(=O)=O [Example 49] | > 1000 nM
7 | O=C(O)c1cccc(-c2cc3c(cc2F)N(c2ccccc2)CC2CC4(CC4)CN2S3(=O)=O)c1 (centres unmarked) [Example 5] | > 1000 nM
8 | CN1[C@H](CN2CCCC(F)(F)C2)CN(c2ccccc2)c2cc(Cl)c(-c3ccc(F)c(C(=O)O)c3)cc2S1(=O)=O [Example 112] | > 1000 nM
9 | O=C(O)c1cc(-c2cc3c(cc2F)N(c2ccccc2)C[C@H]2C[C@@H](C(F)(F)F)CN2S3(=O)=O)ccc1F [Example 10] | > 1000 nM
10 | Cc1ccc(C(=O)O)cc1-c1cc2c(cc1Cl)N(c1ccccc1)C[C@@H](C1CCCCC1)N(C)S2(=O)=O [Example 145, (R)-3-(7-chloro-3-cyclohexyl-2-methyl-1,1-dioxido-5-phenyl-2,3,4,5-tetrahydrobenzo[f][1,2,5]thiadiazepin-8-yl)-4-methylbenzoic acid] | > 1000 nM
11 | CN1[C@H](CO)CN(c2ccccc2)c2cc(Cl)c(-c3ccc(F)c(C(=O)O)c3)cc2S1(=O)=O [Example 98, (S)-5-(7-chloro-3-(hydroxymethyl)-2-methyl-1,1-dioxido-5-phenyl-2,3,4,5-tetrahydrobenzo[f][1,2,5]thiadiazepin-8-yl)-2-fluorobenzoic acid] | > 1000 nM
12 | CN1[C@H](C2CCCCC2)CN(c2ccccc2)c2cc(Cl)c(-c3cccc(C(=O)O)n3)cc2S1(=O)=O [Example 138, (R)-6-(7-chloro-3-cyclohexyl-2-methyl-1,1-dioxido-5-phenyl-2,3,4,5-tetrahydrobenzo[f][1,2,5]thiadiazepin-8-yl)picolinic acid] | 100 to 1000 nM
13 | CC(C)C[C@@H]1CN(c2ccccc2)c2cc(Cl)c(-c3cc(OC(F)(F)F)cc(C(=O)O)c3)cc2S(=O)(=O)N1C [Example 161] | 100 to 1000 nM
14 | O=C(O)c1cc(-c2cc3c(cc2F)N(c2ccccc2)CC2CC4(CC4)CN2S3(=O)=O)ccc1F (centres unmarked) [Example 7] | 100 to 1000 nM
15 | CCCC[C@@H]1CN(c2ccccc2)c2cc(Oc3cccc(OC)c3)c(-c3ccc(F)c(C(=O)O)c3)cc2S(=O)(=O)N1C [Example 420] | 100 to 1000 nM
16 | O=C(O)c1cccc(-c2cc3c(cc2Cl)N(c2ccccc2)CC2CC4(CC4)CN2S3(=O)=O)c1 (centres unmarked) [Example 57] | 100 to 1000 nM
17 | CC(C)C[C@@H]1CN([C@H]2CCOC2)c2cc(Oc3ccccc3F)c(-c3ccc(F)c(C(=O)O)c3)cc2S(=O)(=O)N1C [Example 474] | 100 to 1000 nM
18 | CN1C(C23CC(C(F)(F)F)(C2)C3)CN(c2ccccc2)c2cc(Cl)c(-c3ccc(F)c(C(=O)O)c3)cc2S1(=O)=O (centres unmarked) [Example 87] | 100 to 1000 nM
19 | CN1[C@H](C2CCCCC2)CN(c2ccccc2)c2cc(F)c(-c3ccc(N)c(C(=O)O)c3)cc2S1(=O)=O [Example 158] | 100 to 1000 nM
20 | CC(C)C[C@@H]1CN(c2ccccc2)c2cc(O[C@H]3CCOC3)c(-c3ccc(F)c(C(=O)O)c3)cc2S(=O)(=O)N1C [Example 446] | 100 to 1000 nM
21 | CN1[C@H](C2CCCCC2)CN(c2ccccc2)c2cc(OC3CCNCC3)c(-c3ccc(F)c(C(=O)O)c3)cc2S1(=O)=O [Example 394, (R)-5-(3-cyclohexyl-2-methyl-1,1-dioxido-5-phenyl-7-(piperidin-4-yloxy)-2,3,4,5-tetrahydrobenzo[f][1,2,5]thiadiazepin-8-yl)-2-fluorobenzoic acid] | > 1000 nM
22 | COc1cccc(N2C[C@@H](C3CCCCC3)N(C)S(=O)(=O)c3cc(-c4ccc(F)c(C(=O)O)c4)c(Cl)cc32)c1 [Example 305] | 100 to 1000 nM

Other lines, results leading:

Row | EC50 | Compound
23 | < 100 nM | CC(C)C[C@@H]1CN(c2ccccc2)c2cc(Oc3cc(Cl)cc(Cl)c3)c(-c3ccc(F)c(C(=O)O)c3)cc2S(=O)(=O)N1C [Example 435]
24 | < 100 nM | CN1[C@H](C2CCCCC2)CN(c2ccccc2)c2cc(Cl)c(-c3ccc(NS(=O)(=O)CCc4ccccc4)c(C(=O)O)c3)cc2S1(=O)=O [Example 270]
25 | < 100 nM | CN1[C@H](C2CCCCC2)CN(c2ccccc2)c2cc(C#Cc3ccsc3)c(-c3ccc(F)c(C(=O)O)c3)cc2S1(=O)=O [Example 602, (R)-5-(3-cyclohexyl-2-methyl-1,1-dioxido-5-phenyl-7-(thiophen-3-ylethynyl)-2,3,4,5-tetrahydrobenzo[f][1,2,5]thiadiazepin-8-yl)-2-fluorobenzoic acid]
26 | 100 to 1000 nM | CN1[C@H](C2CCCCC2)CN(c2cccc(C(F)(F)F)c2)c2cc(Cl)c(-c3ccc(F)c(C(=O)O)c3)cc2S1(=O)=O [Example 301]
27 | 100 to 1000 nM | CN1[C@H](C2CCCCC2)CN(c2ccccc2)c2cc(O[C@H]3C[C@H](C#N)C3)c(-c3ccc(F)c(C(=O)O)c3)cc2S1(=O)=O [Example 384]
28 | < 100 nM | CCCC[C@@H]1CN(c2ccccc2)c2cc(-n3cncn3)c(-c3ccc(F)c(C(=O)O)c3)cc2S(=O)(=O)N1C [Example 526]
29 | < 100 nM | CN1[C@H](C2CCCCC2)CN(c2ccccc2)c2cc(OCC(F)(F)F)c(-c3ccc(NC(=O)OCc4ccccc4)c(C(=O)O)c3)cc2S1(=O)=O [Example 480]
30 | 100 to 1000 nM | CC(C)CC1CN(C2CC2)c2cc(Cl)c(-c3cccc(C(=O)O)c3)cc2S(=O)(=O)N1C (centres unmarked) [Example 327]
31 | < 100 nM | CN1[C@H](C2CCCCC2)CN(c2ccccc2)c2cc(OC3CC(C)(C)C3)c(-c3ccc(F)c(C(=O)O)c3)cc2S1(=O)=O [Example 375]
32 | 100 to 1000 nM | CC(C)C[C@@H]1CN(c2ccccc2)c2cc(N3CCc4ccccc43)c(-c3ccc(Cl)c(C(=O)O)c3)cc2S(=O)(=O)N1C [Example 551]
33 | 100 to 1000 nM | CN1[C@H](C2CCCCC2)CN(c2ccccc2)c2cc(OC3CCC(C)(C)CC3)c(-c3ccc(F)c(C(=O)O)c3)cc2S1(=O)=O [Example 386]
34 | < 100 nM | CN1[C@H](C2CCCCC2)CN(c2ccccc2)c2cc(OCCCC3CCN(C(=O)OC(C)(C)C)CC3)c(-c3ccc(F)c(C(=O)O)c3)cc2S1(=O)=O [Example 368]
35 | 100 to 1000 nM | CN1[C@H](CC2CCCCC2)CN(c2ccccc2)c2cc(Cl)c(-c3ccc(F)c(C(=O)O)c3)cc2S1(=O)=O [Example 52]
36 | < 100 nM | COc1ccccc1Oc1cc2c(cc1-c1ccc(F)c(C(=O)O)c1)S(=O)(=O)N(C)[C@H](CC(C)C)CN2c1ccccc1 [Example 428]
37 | 100 to 1000 nM | CN1[C@H](C2CCCCC2)CN(c2ccccc2)c2cc(Cl)c(-c3ccc(C(F)(F)F)c(C(=O)O)c3)cc2S1(=O)=O [Example 143, (R)-5-(7-chloro-3-cyclohexyl-2-methyl-1,1-dioxido-5-phenyl-2,3,4,5-tetrahydrobenzo[f][1,2,5]thiadiazepin-8-yl)-2-(trifluoromethyl)benzoic acid]
38 | 100 to 1000 nM | CC(C)C[C@@H]1CN(c2ccccc2)c2cc(Nc3ccccc3F)c(-c3ccc(Cl)c(C(=O)O)c3)cc2S(=O)(=O)N1C [Example 546]
39 | 100 to 1000 nM | Cc1ncc(N2C[C@@H](C3CCCCC3)N(C)S(=O)(=O)c3cc(-c4ccc(F)c(C(=O)O)c4)c(Cl)cc32)cn1 [Example 287]
40 | < 100 nM | CCCCCCCOc1cc2c(cc1-c1cc(F)c(C(=O)O)s1)S(=O)(=O)N(C)[C@H](C1CCCCC1)CN2c1ccccc1 [Example 485]
41 | 100 to 1000 nM | CO[C@H]1C[C@@H](N2C[C@@H](CC(C)C)N(C)S(=O)(=O)c3cc(-c4ccc(F)c(C(=O)O)c4)c(Oc4ccccc4F)cc32)C1 [Example 473]
42 | < 100 nM | Cc1nc(COc2cc3c(cc2-c2cc(F)c(C(=O)O)s2)S(=O)(=O)N(C)[C@H](C2CCCCC2)CN3c2ccccc2)sc1C [Example 500]
43 | 100 to 1000 nM | COCOC[C@@H]1CN(c2ccccc2)c2cc(Cl)c(-c3ccc(F)c(C(=O)O)c3)cc2S(=O)(=O)N1C [Example 97, (S)-5-(7-chloro-3-((methoxymethoxy)methyl)-2-methyl-1,1-dioxido-5-phenyl-2,3,4,5-tetrahydrobenzo[f][1,2,5]thiadiazepin-8-yl)-2-fluorobenzoic acid]
44 | 100 to 1000 nM | CN1[C@H](C2CCCCC2)CNc2cc(C34CC(C3)C4)c(-c3ccc(F)c(C(=O)O)c3)cc2S1(=O)=O [Example 585]
45 | < 100 nM | CC(C)C[C@@H]1CN(c2ccccc2)c2cc(Cl)c(-c3ccc(C(F)(F)F)c(C(=O)O)c3)cc2S(=O)(=O)N1C [Example 186]
46 | < 100 nM | CC(C)C[C@@H]1CN(c2ccccc2)c2cc(OCc3ccccn3)c(-c3ccc(F)c(C(=O)O)c3)cc2S(=O)(=O)N1C [Example 459]
47 | < 100 nM | CN1[C@H](C2CCCCC2)CN(c2ccccc2)c2cc(OCc3ccsc3Cl)c(-c3cc(F)c(C(=O)O)s3)cc2S1(=O)=O [Example 489]
